Several values for one entry are separate records, joined by “and”; a condition that tells them apart may be missing. Equal entries are not always repeated.
Tests used:
[1] = tested on: p-AKT Ser473; experiment: Western blot, TPO-activated AKT phosphorylation in UT-7/TPO cells; assay type: cell-based; conditions: then TPO
Method: In addition, Compound B was examined for the effects on the PI3K signaling pathway by determining the levels of AKT and S6 phosphorylation with or without TPO activation. Two cell lines, BaF3/MPL and UT-7/TPO sensitive or responsive to TPO activation were used. The cells were starved (i.e. growing on medium having less FBS) in […] FBS/RPMI for two hours before treated with 0.1, 1.0, or 2.0 μM of Compound B or vehicle (0.1% DMSO in RPMI) for 2 hours at 37° C. To examine the TPO-activated phosphorylation, the cells were then treated or activated with 50 ng/mL of human recombinant TPO (Peprotech) for 10 minutes at 37° C. The TPO activation or treatment may reflect the conditions in diseased cells as the PI3K pathway is activated by TPO in myelofibrosis. After treating with compound and/or TPO, the cells were collected, lysed by lysis buffer (Cell Signaling), separated by SDS-PAGE, and analyzed by the Western blot using antibodies specific to p-AKT Ser473 or pS6 Ser235/236 (Cell Signaling). The phosphorylation levels in treated cells were calculated and compared to those of untreated cells (i.e. vehicle as negative control).

[2] = tested on: WIL2-S; experiment: ADCC LDH release assay, purified NK cells against WIL2-S target cells; assay type: cell-based, human; conditions: for Percentage of ADCC, 5 nM Compound B / Percentage of ADCC, 50 nM Compound B / Percentage of ADCC, 500 nM Compound B: antibody concentration 10 μg/mL; for Percentage of maximum ADCC, obinutuzumab: obinutuzumab 10 μg/mL; for Percentage of maximum ADCC, rituximab: rituximab 10 μg/mL
[3] = Compound B 0.98 nM, FcγRIIIa 158F/F
[4] = Compound B 0.98 nM, FcγRIIIa 158F/V
[5] = Compound B 0.98 nM, FcγRIIIa 158V/V
[6] = Compound B 1.95 nM, FcγRIIIa 158F/F
[7] = Compound B 1.95 nM, FcγRIIIa 158F/V
[8] = Compound B 1.95 nM, FcγRIIIa 158V/V
[9] = Compound B 3.91 nM, FcγRIIIa 158F/F
[10] = Compound B 3.91 nM, FcγRIIIa 158F/V
[11] = Compound B 3.91 nM, FcγRIIIa 158V/V
[12] = Compound B 7.81 nM, FcγRIIIa 158F/F
[13] = Compound B 7.81 nM, FcγRIIIa 158F/V
[14] = Compound B 7.81 nM, FcγRIIIa 158V/V
[15] = Compound B 15.63 nM, FcγRIIIa 158F/V
[16] = Compound B 15.63 nM, FcγRIIIa 158V/V

With CC[C@H](Nc1ncnc2[nH]cnc12)c1nc2cccc(F)c2c(=O)n1-c1ccccc1 [Compound B, (S)-2-(1-((9H-purin-6-yl)amino)propyl)-5-fluoro-3-phenylquinazolin-4(3H)-one] the “reduced p-AKT levels vs vehicle” value ([1]; 0.1 μM 2 h) was 11%, the “reduced p-AKT levels vs vehicle” value ([1]; 1.0 μM 2 h) was 44% and the “reduced p-AKT levels vs vehicle” value ([1]; 2.0 μM 2 h) was 55%. The “Percentage of ADCC, 5 nM Compound B” value ([2]; E:T 3:1) was 58% and 56% and 53% and 49% and 46% and 44% and 39%, the “Percentage of ADCC, 5 nM Compound B” value ([2]; E:T 10:1) was 72% and 75% and 73% and 79% and 74% and the “Percentage of ADCC, 5 nM Compound B” value ([2]; E:T 30:1) was 81% and 82% and 79% and 76% and 80% and 77% and 85% and 84%. The “Percentage of ADCC, 50 nM Compound B” value ([2]; E:T 3:1) was 54% and 58% and 50% and 39% and 37% and 44% and 42%, the “Percentage of ADCC, 50 nM Compound B” value ([2]; E:T 10:1) was 72% and 74% and 69% and 77% and 76% and 73% and the “Percentage of ADCC, 50 nM Compound B” value ([2]; E:T 30:1) was 76% and 81% and 80% and 79% and 75% and 85% and 84%. For the same molecule, the “Percentage of ADCC, 500 nM Compound B” value ([2]; E:T 3:1) was 50% and 53% and 36% and 34% and 39% and 35% and 38%, the “Percentage of ADCC, 500 nM Compound B” value ([2]; E:T 10:1) was 67% and 73% and 71% and 66% and 70% and the “Percentage of ADCC, 500 nM Compound B” value ([2]; E:T 30:1) was 76% and 79% and 77% and 72% and 75% and 81% and 82%. The “Percentage of maximum ADCC, obinutuzumab” value [2, 3] was 91% and 104%, the “Percentage of maximum ADCC, obinutuzumab” value [2, 4] was 103% and 104% and the “Percentage of maximum ADCC, obinutuzumab” value [2, 5] was 101% and 99%. For the same molecule, the “Percentage of maximum ADCC, rituximab” value [2, 3] was 104% and 107%, the “Percentage of maximum ADCC, rituximab” value [2, 4] was 100% and 105% and the “Percentage of maximum ADCC, rituximab” value [2, 5] was 102% and 99%. The “Percentage of maximum ADCC, obinutuzumab” value [2, 6] was 89% and 106%, the “Percentage of maximum ADCC, obinutuzumab” value [2, 7] was 104% and 112% and the “Percentage of maximum ADCC, obinutuzumab” value [2, 8] was 107% and 100%. For the same molecule, the “Percentage of maximum ADCC, rituximab” value [2, 6] was 103% and 111%, the “Percentage of maximum ADCC, rituximab” value [2, 7] was 105% and 111% and the “Percentage of maximum ADCC, rituximab” value [2, 8] was 105% and 104%. For the same molecule, the “Percentage of maximum ADCC, obinutuzumab” value [2, 9] was 84% and 108%, the “Percentage of maximum ADCC, obinutuzumab” value [2, 10] was 105% and 110% and the “Percentage of maximum ADCC, obinutuzumab” value [2, 11] was 103% and 91%. The “Percentage of maximum ADCC, rituximab” value [2, 9] was 97% and 109%, the “Percentage of maximum ADCC, rituximab” value [2, 10] was 102% and 110% and the “Percentage of maximum ADCC, rituximab” value [2, 11] was 102% and 105%. The “Percentage of maximum ADCC, obinutuzumab” value [2, 12] was 89% and 107%, the “Percentage of maximum ADCC, obinutuzumab” value [2, 13] was 109% and 107% and the “Percentage of maximum ADCC, obinutuzumab” value [2, 14] was 94% and 90%. For the same molecule, the “Percentage of maximum ADCC, rituximab” value [2, 12] was 91% and 108%, the “Percentage of maximum ADCC, rituximab” value [2, 13] was 104% and 110% and the “Percentage of maximum ADCC, rituximab” value [2, 14] was 100%. For the same molecule, the “Percentage of maximum ADCC, obinutuzumab” value ([2]; Compound B 15.63 nM, FcγRIIIa 158F/F) was 80% and 108%, the “Percentage of maximum ADCC, obinutuzumab” value [2, 15] was 106% and 109% and the “Percentage of maximum ADCC, obinutuzumab” value [2, 16] was 93% and 90%. For the same molecule, the “Percentage of maximum ADCC, rituximab” value [2, 15] was 100% and 108%, the “Percentage of maximum ADCC, rituximab” value [2, 16] was 98% and 101% and the “Percentage of maximum ADCC, obinutuzumab” value ([2]; Compound B 31.25 nM, FcγRIIIa 158F/F) was 85% and 107%. The “Percentage of maximum ADCC, obinutuzumab” value ([2]; Compound B 31.25 nM, FcγRIIIa 158F/V) was 107%.

Reference: US20160331754A1, “THERAPIES FOR TREATING CANCERS” (GILEAD SCIENCES, INC., priority 2014, published 2016)
